According to ChEMBL document CHEMBL1157518, “New trypanocidal hybrid compounds from the association of hydrazone moieties and benzofuroxan heterocycle” (Bioorg Med Chem, 2008):

Key:
[1] = biological target: Cruzipain (Trypanosoma cruzi) (UniProt P25779); test: Inhibition of Trypanosoma cruzi Tulahuen 2 epimastigote cruzipain at 100 uM by spectrophotometry
Cruzipain = Cruzipain (Trypanosoma cruzi, UniProt P25779); test: Inhibition of Trypanosoma cruzi Tulahuen 2 epimastigote cruzipain by spectrophotometry
Sequence of Cruzipain (P25779 whole entry): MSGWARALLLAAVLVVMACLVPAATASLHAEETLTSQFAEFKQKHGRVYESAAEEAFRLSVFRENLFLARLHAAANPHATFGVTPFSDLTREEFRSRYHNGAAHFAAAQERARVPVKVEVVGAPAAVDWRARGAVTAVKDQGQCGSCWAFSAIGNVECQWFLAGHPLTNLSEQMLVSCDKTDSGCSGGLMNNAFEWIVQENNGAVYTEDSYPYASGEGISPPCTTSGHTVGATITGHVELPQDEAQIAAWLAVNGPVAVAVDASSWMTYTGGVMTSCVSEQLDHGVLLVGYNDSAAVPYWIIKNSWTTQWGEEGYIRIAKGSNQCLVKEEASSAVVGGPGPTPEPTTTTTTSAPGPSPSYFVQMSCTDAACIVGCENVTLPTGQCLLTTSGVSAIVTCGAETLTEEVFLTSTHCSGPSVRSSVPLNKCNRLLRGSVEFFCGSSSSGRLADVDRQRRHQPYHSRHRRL

[2] = biological target: Trypanothione reductase (Trypanosoma cruzi) (UniProt P28593); test: Inhibition of Trypanosoma cruzi recombinant trypanothione reductase at 100 uM by spectrophotometry
Sequence of Trypanothione reductase (Trypanosoma cruzi) (P28593 whole entry, looked up): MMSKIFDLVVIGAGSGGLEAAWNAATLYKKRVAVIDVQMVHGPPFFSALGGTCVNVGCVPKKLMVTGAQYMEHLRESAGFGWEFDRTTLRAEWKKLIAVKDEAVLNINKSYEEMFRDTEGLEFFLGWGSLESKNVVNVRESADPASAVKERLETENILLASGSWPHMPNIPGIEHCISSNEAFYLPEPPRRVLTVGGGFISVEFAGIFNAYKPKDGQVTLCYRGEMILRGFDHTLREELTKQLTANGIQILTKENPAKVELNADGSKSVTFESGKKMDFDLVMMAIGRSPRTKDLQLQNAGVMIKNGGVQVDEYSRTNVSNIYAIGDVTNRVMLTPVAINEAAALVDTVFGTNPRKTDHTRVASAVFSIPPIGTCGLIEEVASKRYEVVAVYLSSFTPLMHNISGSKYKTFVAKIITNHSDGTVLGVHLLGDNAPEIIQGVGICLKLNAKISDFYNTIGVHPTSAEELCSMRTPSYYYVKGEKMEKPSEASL

[3] = biological target: Trypanothione reductase (Trypanosoma cruzi) (UniProt P28593); test: Inhibition of Trypanosoma cruzi recombinant trypanothione reductase at 40 uM by spectrophotometry
Trypanosoma cruzi [4] = test: Antitrypanosomal activity against epimastigotes of Trypanosoma cruzi Tulahuen 2; type: functional, organism-based
Trypanosoma cruzi [5] = test: Antitrypanosomal activity against epimastigotes of Trypanosoma cruzi Tulahuen 2 at 25 uM relative to control; type: functional; settings: read-out: GI
[6] = Selectivity index, ratio of IC50 for mouse J774 cells to IC50 for epimastigotes of Trypanosoma cruzi Tulahuen 2; type: toxicity, cell-based; settings: read-out: Ratio IC50
J774 = test: Cytotoxicity against mouse J774 cells after 48 hrs by MTT assay; type: cell-based; settings: J774, 48 h
Trypanosoma cruzi [7] = test: Antitrypanosomal activity against epimastigotes of Trypanosoma cruzi CL Brener; type: functional, organism-based
[8] = biological target: Trypanothione reductase (Trypanosoma cruzi) (UniProt P28593); test: Inhibition of Trypanosoma cruzi recombinant trypanothione reductase at […] by spectrophotometry

Sequence of Cruzipain (Trypanosoma cruzi) (P25779 123-467 limits assumed): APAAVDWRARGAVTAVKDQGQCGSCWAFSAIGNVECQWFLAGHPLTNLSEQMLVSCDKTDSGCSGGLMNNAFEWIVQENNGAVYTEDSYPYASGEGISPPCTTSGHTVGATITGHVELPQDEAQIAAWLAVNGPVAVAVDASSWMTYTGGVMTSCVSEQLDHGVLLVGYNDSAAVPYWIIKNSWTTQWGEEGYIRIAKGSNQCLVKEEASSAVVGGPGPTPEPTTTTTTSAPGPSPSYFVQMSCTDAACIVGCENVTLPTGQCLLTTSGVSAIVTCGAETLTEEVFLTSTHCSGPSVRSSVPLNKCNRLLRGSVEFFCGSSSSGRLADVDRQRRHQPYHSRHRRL

Row | SMILES | inhibition [1] [%] | IC50 (Cruzipain) [µM] | inhibition [2] [%] | inhibition [3] [%] | IC50 (Trypanosoma cruzi [4]) [µM] | inhibition of growth at 25 µM (Trypanosoma cruzi [5]) [%] | selectivity ratio [6] | IC50 (J774) [µM] | IC50 (Trypanosoma cruzi [7]) [µM] | inhibition [8] [%]
1 | C=CCNC(=S)N/N=C/c1ccc2no[n+]([O-])c2c1 | 36 | > 100 | 9 | 13 | > 25 | 35 | – | – | – | –
2 | NC(=S)N/N=C/c1ccc2no[n+]([O-])c2c1 | 7 | > 100 | 19 | 9 | > 25 | 5 | – | – | – | –
3 | NC(=S)N/N=C/c1ccc(OCc2ccc3no[n+]([O-])c3c2)cc1 | – | 43 | 0 | – | – | 70 | 26.7 | 400 | 19.8 | 0
4 | [O-][n+]1onc2ccc(/C=N/N=C/c3ccc(O)cc3)cc21 | – | 100 | – | – | 25 | 52 | – | – | – | –
5 | NC(=O)N/N=C/c1ccc(OCc2ccc3no[n+]([O-])c3c2)cc1 | 23 | > 100 | 0 | – | > 25 | 25 | – | – | – | 0
6 | CN(C/C=C/C#CC(C)(C)C)Cc1cccc2ccccc12 [TERBINAFINE] | – | – | – | – | – | 100 | 5.1 | – | – | –
7 | CC(=O)N1CCN(c2ccc(OCC3COC(Cn4ccnc4)(c4ccc(Cl)cc4Cl)O3)cc2)CC1 (centres undefined) [KETOCONAZOLE] | – | – | – | – | – | 100 | < 5 | < 50 | – | –
8 | [O-][n+]1onc2ccc(/C=N/N=C/c3ccccc3O)cc21 | – | 68 | – | – | > 25 | 17 | – | – | – | –
9 | CC1CS(=O)(=O)CCN1/N=C/c1ccc([N+](=O)[O-])o1 (centres undefined) [NIFURTIMOX] | – | – | – | – | – | 100 | – | – | – | –
10 | N=C(N)N/N=C/c1ccc(OCc2ccc3no[n+]([O-])c3c2)cc1 | – | 32 | 50 | 30 | > 25 | 40 | < 2 | < 50 | 38.2 | –
11 | O=C(Cn1ccnc1[N+](=O)[O-])NCc1ccccc1 [BENZNIDAZOLE] | – | – | – | – | – | 100 | – | – | – | –
12 | O=Cc1ccc(OCc2ccc3no[n+]([O-])c3c2)cc1 | – | – | 19 | – | 8.7 | 98 | 6.9 | 60 | – | –
13 | N=C(N/N=C/c1ccc(O)cc1)SCc1ccc2no[n+]([O-])c2c1 | – | – | 19 | – | 6.8 | 100 | 20.9 | 142 | – | –
14 | [O-][n+]1onc2ccc(/C=N/NC(=S)Nc3ccccc3)cc21 | – | 78 | 0 | – | 8.9 | 93 | < 5.6 | < 50 | 2.6 | 0
15 | [O-][n+]1onc2ccc(/C=N/N=C/c3cc(Br)ccc3O)cc21 | – | 73 | – | – | 25 | 48 | < 3.4 | 84 | – | –
